{"source": "paper PMC5218480", "about": "(PLoS ONE, 2017)", "system": "MV-4-11 cells", "assay": "Gene expression microarray analysis (Affymetrix PrimeView) and GSEA", "format": "cell-based, human", "parameters": "RFU PODN (11730768_x_at) / Fold change /veh PODN (11730768_x_at) / RFU LINC00158 (11744669_a_at) / Fold change /veh LINC00158 (11744669_a_at) / RFU DUSP10 (11751237_a_at) / Fold change /veh DUSP10 (11751237_a_at) / RFU ID3 (11757404_x_at) / Fold change /veh ID3 (11757404_x_at) / RFU PLEKHG5 (11737974_s_at) / Fold change /veh PLEKHG5 (11737974_s_at) / RFU LRRC4B (11730491_at) / Fold change /veh LRRC4B (11730491_at) / RFU GIMAP4 (11747438_a_at) / Fold change /veh GIMAP4 (11747438_a_at) / RFU KRT8 (11758183_x_at) / Fold change /veh KRT8 (11758183_x_at) / RFU CNN1 (11734310_a_at) / Fold change /veh CNN1 (11734310_a_at) / RFU VPS37D (11726825_at) / Fold change /veh VPS37D (11726825_at) / RFU C10orf10 (11716522_x_at) / Fold change /veh C10orf10 (11716522_x_at) / RFU KIR2DL2 /// KIR2DL4 /// KIR2DL5A /// KIR2DL5B /// KIR2DS1 /// KIR2DS2 /// KIR2DS3 /// KIR2DS4 /// KIR3DL3 /// KIR3DL3 /// KIR3DS1 (11738374_at) / Fold change /veh KIR2DL2 /// KIR2DL4 /// KIR2DL5A /// KIR2DL5B /// KIR2DS1 /// KIR2DS2 /// KIR2DS3 /// KIR2DS4 /// KIR3DL3 /// KIR3DL3 /// KIR3DS1 (11738374_at) / RFU C1QL1 (11718748_at) / Fold change /veh C1QL1 (11718748_at) / RFU TMPRSS4 (11747572_a_at) / Fold change /veh TMPRSS4 (11747572_a_at) / RFU HAMP (11756126_x_at) / Fold change /veh HAMP (11756126_x_at) / RFU RNFT2 (11725882_a_at) / Fold change /veh RNFT2 (11725882_a_at) / RFU NR4A2 (11747474_a_at) / Fold change /veh NR4A2 (11747474_a_at) / RFU ABCC12 (11746883_a_at) / Fold change /veh ABCC12 (11746883_a_at) / RFU TMEM136 (11760407_x_at) / Fold change /veh TMEM136 (11760407_x_at) / RFU CLDN22 /// WWC2 (11732394_at) / Fold change /veh CLDN22 /// WWC2 (11732394_at) / RFU HLA-DPB1 (11760878_x_at) / Fold change /veh HLA-DPB1 (11760878_x_at) / RFU SPINT1 (11716480_a_at) / Fold change /veh SPINT1 (11716480_a_at) / RFU GAP43 (11754022_s_at) / Fold change /veh GAP43 (11754022_s_at) / RFU A4GNT (11735810_at) / Fold change /veh A4GNT (11735810_at) / RFU PRB3 (11715151_x_at) / Fold change /veh PRB3 (11715151_x_at) / RFU TUBB4B (11761932_at) / Fold change /veh TUBB4B (11761932_at) / RFU CAPN14 (11732068_a_at) / Fold change /veh CAPN14 (11732068_a_at) / RFU TMCC2 (11721928_a_at) / Fold change /veh TMCC2 (11721928_a_at) / RFU IRGQ (11745062_a_at) / Fold change /veh IRGQ (11745062_a_at) / RFU FAM174B (11720279_a_at) / Fold change /veh FAM174B (11720279_a_at) / RFU TMPRSS4 (11748680_a_at) / Fold change /veh TMPRSS4 (11748680_a_at) / RFU FAM212B (11763350_a_at) / Fold change /veh FAM212B (11763350_a_at) / RFU PLEKHG5 (11743358_a_at) / Fold change /veh PLEKHG5 (11743358_a_at) / RFU ZSCAN30 (11745921_a_at) / Fold change /veh ZSCAN30 (11745921_a_at) / RFU CMKLR1 (11741424_a_at) / Fold change /veh CMKLR1 (11741424_a_at) / RFU LOC101060620 /// MAPK8IP1 (11723275_at) / Fold change /veh LOC101060620 /// MAPK8IP1 (11723275_at) / RFU SPTSSB (11747773_x_at) / Fold change /veh SPTSSB (11747773_x_at) / RFU PRSS12 (11739890_at) / Fold change /veh PRSS12 (11739890_at) / RFU BIN1 (11741810_x_at) / Fold change /veh BIN1 (11741810_x_at) / RFU WNT11 (11732464_a_at) / Fold change /veh WNT11 (11732464_a_at) / RFU C10orf10 (11716521_a_at) / Fold change /veh C10orf10 (11716521_a_at) / RFU C5orf56 (11738089_at) / Fold change /veh C5orf56 (11738089_at) / RFU CYB561 (11721691_x_at) / Fold change /veh CYB561 (11721691_x_at) / RFU ANKRD19P (11752326_a_at) / Fold change /veh ANKRD19P (11752326_a_at) / RFU OR2T12 /// OR2T33 /// OR2T8 (11738714_s_at) / Fold change /veh OR2T12 /// OR2T33 /// OR2T8 (11738714_s_at) / RFU VCAN (11748164_a_at) / Fold change /veh VCAN (11748164_a_at) / RFU JSRP1 (11732532_at) / Fold change /veh JSRP1 (11732532_at) / RFU KRTAP10-11 (11738290_x_at) / Fold change /veh KRTAP10-11 (11738290_x_at) / RFU MYO3A (11730013_a_at) / Fold change /veh MYO3A (11730013_a_at) / RFU EBF3 (11725865_a_at) / Fold change /veh EBF3 (11725865_a_at) / RFU CAMK2N1 (11719241_x_at) / Fold change /veh CAMK2N1 (11719241_x_at) / RFU C5orf56 (11738088_a_at) / Fold change /veh C5orf56 (11738088_a_at) / RFU OLFML3 (11715873_a_at) / Fold change /veh OLFML3 (11715873_a_at) / RFU LOC100653217 /// NTM (11731650_a_at) / Fold change /veh LOC100653217 /// NTM (11731650_a_at) / RFU MAPK11 (11762145_a_at) / Fold change /veh MAPK11 (11762145_a_at) / RFU FIZ1 (11724087_x_at) / Fold change /veh FIZ1 (11724087_x_at) / RFU OASL (11726364_x_at) / Fold change /veh OASL (11726364_x_at) / RFU SOX15 (11748057_x_at) / Fold change /veh SOX15 (11748057_x_at) / RFU CD79A (11719716_a_at) / Fold change /veh CD79A (11719716_a_at) / RFU HIST1H1D (11736915_at) / Fold change /veh HIST1H1D (11736915_at) / RFU CASKIN2 (11723855_a_at) / Fold change /veh CASKIN2 (11723855_a_at) / RFU LOC730098 (11760151_x_at) / Fold change /veh LOC730098 (11760151_x_at) / RFU OR4N2 (11742367_at) / Fold change /veh OR4N2 (11742367_at) / RFU PRRT2 (11749266_a_at) / Fold change /veh PRRT2 (11749266_a_at) / RFU SNX32 (11753110_a_at) / Fold change /veh SNX32 (11753110_a_at) / RFU CDHR5 (11726645_a_at) / Fold change /veh CDHR5 (11726645_a_at) / RFU RCAN1 (11760418_a_at) / Fold change /veh RCAN1 (11760418_a_at) / RFU FAM167A (11723789_a_at) / Fold change /veh FAM167A (11723789_a_at) / RFU FAM26E (11764081_at) / Fold change /veh FAM26E (11764081_at) / RFU ISYNA1 (11749810_s_at) / Fold change /veh ISYNA1 (11749810_s_at) / RFU ACY1 (11761880_at) / Fold change /veh ACY1 (11761880_at) / RFU 11764098_at / Fold change /veh 11764098_at / RFU SAMD14 (11745864_x_at) / Fold change /veh SAMD14 (11745864_x_at) / RFU NPB (11741838_a_at) / Fold change /veh NPB (11741838_a_at) / RFU TMPRSS6 (11731388_a_at) / Fold change /veh TMPRSS6 (11731388_a_at) / RFU KRTAP10-2 (11738614_at) / Fold change /veh KRTAP10-2 (11738614_at) / RFU ARHGAP8 /// PRR5-ARHGAP8 (11727945_x_at) / Fold change /veh ARHGAP8 /// PRR5-ARHGAP8 (11727945_x_at) / RFU KRTAP5-7 /// NADSYN1 (11734609_at) / Fold change /veh KRTAP5-7 /// NADSYN1 (11734609_at) / RFU RASL12 (11751679_a_at) / Fold change /veh RASL12 (11751679_a_at) / RFU CDKN2B (11736163_a_at) / Fold change /veh CDKN2B (11736163_a_at) / RFU PRF1 (11729649_at) / Fold change /veh PRF1 (11729649_at) / RFU, ZNF638 /// ZNF638-IT1 / Fold change vs veh, ZNF638 /// ZNF638-IT1 / RFU, PANK3 / Fold change vs veh, PANK3 / RFU, SH3YL1 / Fold change vs veh, SH3YL1 / RFU, ZEB2 / Fold change vs veh, ZEB2 / RFU, NRIP1 / Fold change vs veh, NRIP1 / RFU, PTTG1IP / Fold change vs veh, PTTG1IP / RFU, CAPN2 / Fold change vs veh, CAPN2 / RFU, MED14 / Fold change vs veh, MED14 / RFU, SNORA58 / Fold change vs veh, SNORA58 / RFU, C1orf63 / Fold change vs veh, C1orf63 / RFU, LRRFIP1 / Fold change vs veh, LRRFIP1 / RFU, NDUFAF7 / Fold change vs veh, NDUFAF7 / RFU, SLC12A2 / Fold change vs veh, SLC12A2 / RFU, IBTK / Fold change vs veh, IBTK / RFU, ESF1 / Fold change vs veh, ESF1 / Fold change vs veh, TMEM50B / RFU, TAOK1 / Fold change vs veh, TAOK1 / RFU, ACBD3 / Fold change vs veh, ACBD3 / RFU, TMA16 / Fold change vs veh, TMA16 / RFU, RWDD3 / Fold change vs veh, RWDD3 / RFU, BCAT1 / Fold change vs veh, BCAT1 / RFU, EDEM3 / Fold change vs veh, EDEM3 / RFU, TMEM33 / Fold change vs veh, TMEM33 / RFU, WDR75 / Fold change vs veh, WDR75 / RFU, AHCTF1 / Fold change vs veh, AHCTF1 / RFU, TFRC / Fold change vs veh, TFRC / RFU, ZDHHC17 / Fold change vs veh, ZDHHC17 / RFU, NOM1 / Fold change vs veh, NOM1 / RFU, ARL8B / Fold change vs veh, ARL8B / RFU, ZBTB11 / Fold change vs veh, ZBTB11 / RFU, TAMM41 / Fold change vs veh, TAMM41 / RFU, KIAA1704 /// LOC100996395 / Fold change vs veh, KIAA1704 /// LOC100996395 / RFU, ING1 / Fold change vs veh, ING1 / RFU, TRMT61B / Fold change vs veh, TRMT61B / RFU, FUBP3 / Fold change vs veh, FUBP3 / RFU, TP53 / Fold change vs veh, TP53 / RFU, TNKS2 / Fold change vs veh, TNKS2 / RFU, ZFP14 / Fold change vs veh, ZFP14 / RFU, ACTR2 / Fold change vs veh, ACTR2 / RFU, PPP3R1 / Fold change vs veh, PPP3R1 / RFU, PIK3R1 / Fold change vs veh, PIK3R1 / RFU, HNRNPA1 / Fold change vs veh, HNRNPA1 / RFU, RNF170 / Fold change vs veh, RNF170 / RFU, ZNF28 / Fold change vs veh, ZNF28 / RFU, RNGTT / Fold change vs veh, RNGTT / RFU, OGT / Fold change vs veh, OGT / RFU, BRD1 / Fold change vs veh, BRD1 / RFU, MARS / Fold change vs veh, MARS / RFU, ZNF655 / Fold change vs veh, ZNF655 / RFU, FAHD1 / Fold change vs veh, FAHD1 / RFU, BDP1 / Fold change vs veh, BDP1 / RFU, LRRCC1 / Fold change vs veh, LRRCC1 / RFU, ARID1A / Fold change vs veh, ARID1A / RFU, ZNF146 / Fold change vs veh, ZNF146 / RFU, ZNF330 / Fold change vs veh, ZNF330 / RFU, GPN3 / Fold change vs veh, GPN3 / RFU, C9orf123 / Fold change vs veh, C9orf123 / RFU, N4BP2L2 / Fold change vs veh, N4BP2L2 / RFU, ARFIP1 / Fold change vs veh, ARFIP1 / RFU, FAM179B / Fold change vs veh, FAM179B / RFU, BCL10 / Fold change vs veh, BCL10 / RFU, UHRF1BP1L / Fold change vs veh, UHRF1BP1L / RFU, BET1 / Fold change vs veh, BET1 / RFU, CNOT2 / Fold change vs veh, CNOT2 / RFU, ZNF268 / Fold change vs veh, ZNF268 / Fold change vs veh, ZNF507 / RFU, DGCR2 / Fold change vs veh, DGCR2 / RFU, WDSUB1 / Fold change vs veh, WDSUB1 / Fold change vs veh, HSP90B1 /// MIR3652 / RFU, ADSS / Fold change vs veh, ADSS / RFU, GK / Fold change vs veh, GK / RFU, ZNF148 / Fold change vs veh, ZNF148 / RFU, TAF9 / Fold change vs veh, TAF9 / RFU, SLC1A5 / Fold change vs veh, SLC1A5 / RFU, SLMO2 / Fold change vs veh, SLMO2 / RFU, ABCC4 / Fold change vs veh, ABCC4 / RFU, LOC101060439 /// RAP1B / Fold change vs veh, LOC101060439 /// RAP1B / RFU, RFX7 / Fold change vs veh, RFX7 / RFU, GTPBP10 / Fold change vs veh, GTPBP10 / RFU, CNEP1R1 / Fold change vs veh, CNEP1R1 / RFU, BIVM-ERCC5 /// ERCC5 / Fold change vs veh, BIVM-ERCC5 /// ERCC5 / RFU, ILF3 / Fold change vs veh, ILF3 / RFU 11762660_at / Fold change /veh 11762660_at / RFU VCAN (11757783_s_at) / Fold change /veh VCAN (11757783_s_at) / RFU DDX43 (11728927_at) / Fold change /veh DDX43 (11728927_at) / RFU KRT8 (11758188_x_at) / Fold change /veh KRT8 (11758188_x_at) / RFU NKD1 (11759106_at) / Fold change /veh NKD1 (11759106_at) / RFU SRD5A1 (11742802_a_at) / Fold change /veh SRD5A1 (11742802_a_at) / RFU TPSAB1 /// TPSB2 (11721975_s_at) / Fold change /veh TPSAB1 /// TPSB2 (11721975_s_at) / RFU GSTM3 (11746129_a_at) / Fold change /veh GSTM3 (11746129_a_at) / RFU IL23R (11737362_x_at) / Fold change /veh IL23R (11737362_x_at) / RFU TMEM51 (11727254_a_at) / Fold change /veh TMEM51 (11727254_a_at) / RFU PIWIL2 (11732686_x_at) / Fold change /veh PIWIL2 (11732686_x_at) / RFU ORM1 (11744905_x_at) / Fold change /veh ORM1 (11744905_x_at) / RFU CCDC152 (11743942_at) / Fold change /veh CCDC152 (11743942_at) / RFU ECM1 (11717891_a_at) / Fold change /veh ECM1 (11717891_a_at) / RFU IL23R (11748794_a_at) / Fold change /veh IL23R (11748794_a_at) / RFU TNFAIP8L3 (11732012_x_at) / Fold change /veh TNFAIP8L3 (11732012_x_at) / RFU MBOAT4 (11741988_at) / Fold change /veh MBOAT4 (11741988_at) / RFU 11764193_at / Fold change /veh 11764193_at / RFU TMEM53 (11763286_at) / Fold change /veh TMEM53 (11763286_at) / RFU MAGEB2 (11727129_at) / Fold change /veh MAGEB2 (11727129_at) / RFU TMEM200A (11744735_a_at) / Fold change /veh TMEM200A (11744735_a_at) / RFU CCDC152 (11751479_a_at) / Fold change /veh CCDC152 (11751479_a_at) / RFU FAM211A (11726209_a_at) / Fold change /veh FAM211A (11726209_a_at) / RFU RGS16 (11746705_a_at) / Fold change /veh RGS16 (11746705_a_at) / RFU VCAN (11755009_s_at) / Fold change /veh VCAN (11755009_s_at) / RFU RHOB (11743442_s_at) / Fold change /veh RHOB (11743442_s_at) / RFU RGS16 (11720943_a_at) / Fold change /veh RGS16 (11720943_a_at) / RFU RGS16 (11720944_at) / Fold change /veh RGS16 (11720944_at) / RFU, VPS4B / Fold change vs veh, VPS4B / RFU, CREB1 / Fold change vs veh, CREB1 / RFU, DNAJC13 / Fold change vs veh, DNAJC13 / RFU, GNAQ / Fold change vs veh, GNAQ / RFU, CDK5R1 / Fold change vs veh, CDK5R1 / RFU, ZRANB3 / Fold change vs veh, ZRANB3 / RFU, CUL4A / Fold change vs veh, CUL4A / RFU, CCNY / Fold change vs veh, CCNY / RFU, UFL1 / Fold change vs veh, UFL1 / RFU, COG3 / Fold change vs veh, COG3 / RFU, DIAPH2 / Fold change vs veh, DIAPH2 / RFU, SKA2 / Fold change vs veh, SKA2 / RFU, AFF3 / Fold change vs veh, AFF3 / RFU, LMF1 / Fold change vs veh, LMF1 / RFU, IPO11 / Fold change vs veh, IPO11 / RFU, DFFB / Fold change vs veh, DFFB / RFU, FOXP1 / Fold change vs veh, FOXP1 / RFU, CARD8 / Fold change vs veh, CARD8 / RFU, STRN3 / Fold change vs veh, STRN3 / RFU, ADK / Fold change vs veh, ADK / RFU, RASSF2 / Fold change vs veh, RASSF2 / RFU, WIPF1 / Fold change vs veh, WIPF1 / RFU, LARP1B / Fold change vs veh, LARP1B / RFU, RASA1 / Fold change vs veh, RASA1 / RFU, RB1 / Fold change vs veh, RB1 / RFU, PPFIA1 / Fold change vs veh, PPFIA1 / RFU, MAT2A / Fold change vs veh, MAT2A / RFU, CCT5 / Fold change vs veh, CCT5 / RFU, WDR92 / Fold change vs veh, WDR92 / RFU, CUX1 / Fold change vs veh, CUX1 / RFU, TTC7A / Fold change vs veh, TTC7A / RFU, TMEM135 / Fold change vs veh, TMEM135 / RFU, DEPTOR / Fold change vs veh, DEPTOR / RFU, CPM / Fold change vs veh, CPM / RFU, DNAJB6 / Fold change vs veh, DNAJB6 / RFU, CACNA2D3 / Fold change vs veh, CACNA2D3 / RFU, DTX4 / Fold change vs veh, DTX4 / RFU, TFCP2 / Fold change vs veh, TFCP2 / RFU, GMCL1 /// GMCL1P1 / Fold change vs veh, GMCL1 /// GMCL1P1 / RFU, AEBP2 / Fold change vs veh, AEBP2 / RFU, SNHG1 /// SNORD22 /// SNORD25 /// SNORD26 /// SNORD27 /// SNORD28 /// SNORD29 /// SNORD31 / Fold change vs veh, SNHG1 /// SNORD22 /// SNORD25 /// SNORD26 /// SNORD27 /// SNORD28 /// SNORD29 /// SNORD31 / Fold change (Aza/veh), C12orf56 (ProbeSet 11735607_a_at) / Fold change (ACY-1035/veh), C12orf56 (ProbeSet 11735607_a_at) / Fold change (Aza/veh), FGFR1OP (ProbeSet 11751329_s_at) / Fold change (ACY-1035/veh), FGFR1OP (ProbeSet 11751329_s_at) / Fold change (Aza/veh), VPS36 (ProbeSet 11739960_a_at) / Fold change (ACY-1035/veh), VPS36 (ProbeSet 11739960_a_at) / RFU SYPL1 (11715823_x_at) / Fold change /veh SYPL1 (11715823_x_at) / RFU IGFBP7 (11715501_s_at) / Fold change /veh IGFBP7 (11715501_s_at) / RFU REEP3 (11722064_at) / Fold change /veh REEP3 (11722064_at) / RFU IGLL1 (11728026_x_at) / Fold change /veh IGLL1 (11728026_x_at): dose or concentration left out as unconfirmed", "settings": "ProbeSet 11739263_x_at; LIST D", "data": [{"smiles": "Nc1ccc(-c2cccs2)cc1NC(=O)c1ccc2c(c1)cc(C1CC1)n2CCN1CCOCC1", "note": "[ACY-1035]", "values": [{"measurement": "RFU, VPS4B", "value": 70.19, "unit": "RFU"}]}]}
